Measurements as given in ChEMBL document CHEMBL1201862, “PubChem BioAssay data set” (2004).
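48-hour exposure; five concentrations; linearly interpolated endpoints. Here, GI50 denotes the concentration required for 50% inhibition of growth.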 Calls of active or inactive are those of the source. Cut-off read from the data, not from the text of the source: active = GI50 up to about 1.1 µM and inactive = higher.

Assays:
Assay in all cases: growth of human tumour cells (NCI), 48 h
NCI-H23 = test system: NCI-H23
Malme-3M = test system: Malme-3M
XF498 = test system: XF498
KM12 = test system: KM12
EKVX = test system: EKVX
CAKI-1 = test system: CAKI-1
CCRF-CEM = test system: CCRF-CEM
SF-268 = test system: SF-268
RXF 393 = test system: RXF 393
SNB-75 = test system: SNB-75
LXFL 529 = test system: LXFL 529
NCI-H226 = test system: NCI-H226
UO-31 = test system: UO-31
OVCAR-8 = test system: OVCAR-8
IGROV-1 = test system: IGROV-1
DLD-1 = test system: DLD-1
786-0 = test system: 786-0
NCI-H522 = test system: NCI-H522
SR = test system: SR
HOP-92 = test system: HOP-92
MOLT-4 = test system: MOLT-4
HCT-15 = test system: HCT-15
HL-60 = test system: HL-60
DMS-114 = test system: DMS-114
HOP-62 = test system: HOP-62
HCT-116 = test system: HCT-116
U-251 = test system: U-251
TK-10 = test system: TK-10
DMS-273 = test system: DMS-273
SNB-78 = test system: SNB-78
SK-MEL-28 = test system: SK-MEL-28
OVCAR-3 = test system: OVCAR-3
ACHN = test system: ACHN
RPMI-8226 = test system: RPMI-8226
UACC-62 = test system: UACC-62
SK-OV-3 = test system: SK-OV-3
HOP-18 = test system: HOP-18
NCI-H460 = test system: NCI-H460
K562 = test system: K562
OVCAR-5 = test system: OVCAR-5
KM-20L2 = test system: KM-20L2
M19-MEL = test system: M19-MEL
SF-295 = test system: SF-295
SK-MEL-2 = test system: SK-MEL-2
UACC-257 = test system: UACC-257
SNB-19 = test system: SNB-19
SK-MEL-5 = test system: SK-MEL-5
M14 = test system: M14
COLO 205 = test system: COLO 205
HT-29 = test system: HT-29
A549 = test system: A549
LOX IMVI = test system: LOX IMVI
OVCAR-4 = test system: OVCAR-4
SW-620 = test system: SW-620

In the case of OC1C2CCC1C1C3C=CC(C3)C21 (centres undefined), the GI50 (NCI-H23) is reported as 52.1 µM (inactive), the GI50 (Malme-3M) is reported as > 100 µM (inactive) and the GI50 (XF498) is reported as > 100 µM (inactive). For the same compound, the GI50 (KM12) was 99.3 µM (inactive), the GI50 (EKVX) was > 100 µM (inactive) and the GI50 (CAKI-1) was 64.9 µM (inactive). For the same compound, the GI50 (CCRF-CEM) was 39.6 µM (inactive), the GI50 (SF-268) was > 100 µM (inactive) and the GI50 (RXF 393) was 47 µM (inactive). For the same compound, the GI50 (SNB-75) was 46.6 µM (inactive), the GI50 (LXFL 529) was 96.4 µM (inactive) and the GI50 (NCI-H226) was 58.5 µM (inactive). The GI50 (UO-31) was > 100 µM (inactive), the GI50 (OVCAR-8) was > 100 µM (inactive) and the GI50 (IGROV-1) was > 100 µM (inactive). For the same compound, the GI50 (DLD-1) was > 100 µM (inactive), the GI50 (786-0) was > 100 µM (inactive) and the GI50 (NCI-H522) was 50.9 µM (inactive). The GI50 (SR) was 54.7 µM (inactive), the GI50 (HOP-92) was 34.4 µM (inactive) and the GI50 (MOLT-4) was 64.9 µM (inactive). For the same compound, the GI50 (HCT-15) was 77.4 µM, the GI50 (HL-60) was 38.1 µM (inactive) and the GI50 (DMS-114) was 59.6 µM (inactive). The GI50 (HOP-62) was > 100 µM (inactive), the GI50 (HCT-116) was 79.4 µM (inactive) and the GI50 (U-251) was > 100 µM (inactive). The GI50 (TK-10) was > 100 µM (inactive), the GI50 (DMS-273) was 94.4 µM (inactive) and the GI50 (SNB-78) was > 100 µM (inactive). For the same compound, the GI50 (SK-MEL-28) was > 100 µM (inactive), the GI50 (OVCAR-3) was > 100 µM (inactive) and the GI50 (ACHN) was 95.9 µM (inactive). The GI50 (RPMI-8226) was 42.9 µM (inactive), the GI50 (UACC-62) was > 100 µM (inactive) and the GI50 (SK-OV-3) was > 100 µM (inactive). For the same compound, the GI50 (HOP-18) was > 100 µM (inactive), the GI50 (NCI-H460) was > 100 µM (inactive) and the GI50 (K562) was 70.6 µM (inactive). For the same compound, the GI50 (OVCAR-5) was 63.4 µM (inactive), the GI50 (KM-20L2) was 77.3 µM (inactive) and the GI50 (M19-MEL) was > 100 µM (inactive). For the same compound, the GI50 (SF-295) was 61.5 µM (inactive), the GI50 (SK-MEL-2) was 32.8 µM (inactive) and the GI50 (UACC-257) was > 100 µM (inactive). For the same compound, the GI50 (SNB-19) was > 100 µM (inactive), the GI50 (SK-MEL-5) was 87.3 µM (inactive) and the GI50 (M14) was > 100 µM (inactive). The GI50 (COLO 205) was > 100 µM (inactive), the GI50 (HT-29) was > 100 µM (inactive) and the GI50 (A549) was 57 µM (inactive). For the same compound, the GI50 (LOX IMVI) was 86.5 µM (inactive), the GI50 (OVCAR-4) was > 100 µM (inactive) and the GI50 (SW-620) was > 100 µM (inactive).
